Measurements: patent US11040981B2, “Pyrrolotriazine compounds and methods of inhibiting TAM kinases” (Syros Pharmaceuticals, Inc., priority 2017, dated 2021)
pIC50: −log10 of the molar value.

Legend:
[1] = biological target: T1, AXL (Homo sapiens, UniProt P30530); assay: TR-FRET kinase activity assay, AXL; type: biochemical; conditions: ATP at Km, 60 minutes
T1 sequence (P30530 26-894): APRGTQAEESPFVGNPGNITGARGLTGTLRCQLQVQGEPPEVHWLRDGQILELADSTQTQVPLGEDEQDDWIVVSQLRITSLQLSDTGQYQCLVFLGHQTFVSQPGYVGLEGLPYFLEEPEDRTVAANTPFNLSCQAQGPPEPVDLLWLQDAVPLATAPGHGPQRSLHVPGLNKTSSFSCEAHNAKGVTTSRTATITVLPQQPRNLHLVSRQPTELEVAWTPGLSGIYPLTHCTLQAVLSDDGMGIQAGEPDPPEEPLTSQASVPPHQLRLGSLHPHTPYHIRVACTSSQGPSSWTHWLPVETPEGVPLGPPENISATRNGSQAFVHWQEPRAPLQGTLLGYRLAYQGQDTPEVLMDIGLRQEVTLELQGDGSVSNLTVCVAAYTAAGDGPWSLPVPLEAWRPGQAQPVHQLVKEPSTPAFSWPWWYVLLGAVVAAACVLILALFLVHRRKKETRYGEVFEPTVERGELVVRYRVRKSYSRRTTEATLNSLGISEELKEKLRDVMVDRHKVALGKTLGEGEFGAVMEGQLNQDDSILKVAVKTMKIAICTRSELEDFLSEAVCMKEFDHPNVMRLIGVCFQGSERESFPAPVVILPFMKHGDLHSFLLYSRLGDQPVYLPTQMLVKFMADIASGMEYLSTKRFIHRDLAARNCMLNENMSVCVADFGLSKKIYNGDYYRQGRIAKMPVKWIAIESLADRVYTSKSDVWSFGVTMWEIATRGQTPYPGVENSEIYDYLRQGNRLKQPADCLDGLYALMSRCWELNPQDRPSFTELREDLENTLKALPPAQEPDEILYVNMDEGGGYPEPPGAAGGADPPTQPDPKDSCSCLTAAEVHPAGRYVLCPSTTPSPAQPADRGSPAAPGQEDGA
How it was run: (§1)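 Compounds were tested against each kinase with ATP set at its own Km and a labelled tyrosine peptide substrate. Following one hour at room temperature in buffer containing 10 mM MgCl2 and 1 mM DTT, phosphorylated product was detected by Europium antibody TR-FRET after EDTA quench, and IC50 values were calculated.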

[2] = biological target: T2, FLT3 (Homo sapiens, UniProt P36888); assay: TR-FRET kinase activity assay, FLT3; type: biochemical; conditions: ATP at Km, 60 minutes
T2 sequence (P36888 27-993): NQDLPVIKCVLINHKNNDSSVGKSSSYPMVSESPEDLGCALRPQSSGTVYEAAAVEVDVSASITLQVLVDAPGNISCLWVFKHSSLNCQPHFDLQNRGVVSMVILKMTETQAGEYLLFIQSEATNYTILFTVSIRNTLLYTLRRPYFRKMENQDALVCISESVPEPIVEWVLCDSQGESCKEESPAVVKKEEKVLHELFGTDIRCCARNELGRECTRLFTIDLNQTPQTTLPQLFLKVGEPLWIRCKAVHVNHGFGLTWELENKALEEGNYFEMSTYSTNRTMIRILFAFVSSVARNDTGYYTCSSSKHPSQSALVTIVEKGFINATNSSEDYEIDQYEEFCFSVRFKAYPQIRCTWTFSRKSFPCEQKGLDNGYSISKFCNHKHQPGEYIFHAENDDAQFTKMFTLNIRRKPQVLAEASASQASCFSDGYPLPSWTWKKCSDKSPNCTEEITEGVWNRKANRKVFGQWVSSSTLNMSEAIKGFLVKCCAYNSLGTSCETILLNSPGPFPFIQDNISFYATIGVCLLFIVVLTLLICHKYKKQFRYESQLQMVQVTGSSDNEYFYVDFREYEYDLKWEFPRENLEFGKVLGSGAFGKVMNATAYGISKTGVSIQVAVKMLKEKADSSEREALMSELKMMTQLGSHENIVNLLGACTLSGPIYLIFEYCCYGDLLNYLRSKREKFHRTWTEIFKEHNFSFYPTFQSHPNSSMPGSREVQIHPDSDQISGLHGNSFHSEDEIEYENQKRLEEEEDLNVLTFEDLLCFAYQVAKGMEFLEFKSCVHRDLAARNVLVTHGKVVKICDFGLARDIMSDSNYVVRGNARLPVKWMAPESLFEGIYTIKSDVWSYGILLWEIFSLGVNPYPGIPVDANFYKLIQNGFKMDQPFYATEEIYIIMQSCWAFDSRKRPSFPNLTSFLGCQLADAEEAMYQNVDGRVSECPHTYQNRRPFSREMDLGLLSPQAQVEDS
How it was run: as §1

## COC[C@H](C)Nc1ncc2c([C@H]3CC[C@@H](C(=O)N4CCN(C)CC4)CC3)cc([C@H]3CC[C@H](O)CC3)n2n1 [Compound 607]
[1]
  pIC50: ≥ 7.00
[2]
  pIC50: 5.00 to 6.00

## COC[C@H](C)Nc1ncc2c(-c3ccc(CN4CCN(c5nccc(C)n5)CC4)cc3)cc([C@H]3CC[C@H](O)CC3)n2n1 [Compound 154, (trans)-4-(2-(((S)-1-methoxypropan-2-yl)amino)-5-(4-((4-(4-methylpyrimidin-2-yl)piperazin-1-yl)methyl)phenyl)pyrrolo[2,1-f][1,2,4]triazin-7-yl)cyclohexanol]
[1]
  pIC50: ≥ 7.00
[2]
  pIC50: 6.00 to 7.00

## COC[C@H](C)Nc1ncc2c(-c3cccc(CN4CCCC4)c3)cc([C@H]3CC[C@H](O)CC3)n2n1 [Compound 179]
[1]
  pIC50: 6.00 to 7.00
[2]
  pIC50: 6.00 to 7.00

## CC[C@]1(O)CC[C@@H](c2cc(-c3cnn(C4COC4)c3)c3cnc(N[C@@H](C)COC)nn32)CC1 [Compound 616]
[1]
  pIC50: ≥ 7.00
[2]
  pIC50: 6.00 to 7.00

## COC[C@H](C)Nc1ncc2c(-c3cnn(C4COC4)c3)cc([C@H]3CC[C@](O)(C(C)C)CC3)n2n1 [Compound 617]
[1]
  pIC50: ≥ 7.00
[2]
  pIC50: 6.00 to 7.00

## COC[C@H](C)Nc1ncc2c(-c3ccc([C@H](C)N4CCOCC4)cc3)cc([C@H]3CC[C@H](O)CC3)n2n1 [Compound 157]
[1]
  pIC50: ≥ 7.00
[2]
  pIC50: ≥ 7.00
